Assay results from patent publication US20120237441A9, “ENHANCED B CELL CYTOTOXICITY OF CDIM BINDING ANTIBODY” (priority 2003, published 2012).
Several values for one entry are separate records, joined by “and”; a condition that tells them apart may be missing. Identical values can stand only once.

How the values were obtained:
Nalm-6 cells = experiment: Cell viability assay using PI staining and forward scatter; type: cell-based, human; settings: for viability: cytochalasin 5 μgs/ml or jasplakinolide 3 μgs/ml for 2 hr, then control antibodies; for effect of caspase inhibitor on cell viability: 10 μM for 2 hr at 37° C. before treatment with mAb 216
Experimental: The integrity of the plasma membrane was assessed by the ability of cells to exclude propidium iodide (PI, Sigma, St. Louis, Mo.). The level of PI incorporation was quantitated by flow cytometry on FACScan (Becton-Dickinson, San Jose Calif.) interfaced with VersatermPro and FlowJo software at Stanford's FACS facility. PI-negative cells with normal size as measured by forward scatter signals were considered live cells.
Briefly, cells were treated as specified in each experiment and resuspended in PBS with 3% FCS and 10 μgs/ml of PI. In experiments where toxicity was evaluated in Ca-free medium, cells were resuspended in appropriate media with or without calcium to which 10 μgs/ml PI was added. Since previous studies have shown that mAb 216-mediated toxicity is remarkably pronounced at lower temperatures (Bhat, N. M., et al. (1996) Clin. Exp. Immunol. 105:183), precautions were taken to keep all media and cells at 37° C. and the centrifuge at room temperature.
Cytochalasin was obtained from Sigma and jasplakinolide was obtained from Molecular Probes (Eugene, Oreg.). Caspase inhibitors, Ac-IETD-CHO and Ac-DEVD-CHO were obtained from PharMingen (San Diego, Calif.). Nalm-6 cells (1×10^6 cells/ml) were treated with jasplakinolide (3 μgs/ml), cytochalasin (5 μgs/ml), or caspase inhibitors (10 μM) for 2 hr at 37° C. before treatment with mAb 216. Control samples with equivalent amounts of DMSO were set in parallel. Cells were then exposed to 25 μg of mAb 216 or control Ab and analyzed by flow cytometry.
Since exocytosis of lysosomes is known to be a calcium dependent phenomenon (Miyake, K., and P. L. McNeil (1995) J. Cell Biol. 131:1737; Bi, G. Q., et al. (1995) J. Cell Biol. 131:1747), membrane wounding by mAb 216 nd repair of the wound was tested in calcium free and normal calcium conditions. The cell viability of Nalm-6 cells when treated with two VH4-34 encoded mAbs, mAb 216 at 50, 25 and 12.5 ng/ml concentrations, and Y2K at 50 ng/ml, was tested in the presence of media with and without calcium.
Brefeldin-A was obtained from Sigma. Nalm-6 cells (1×10^6 cells/ml) were treated with BFA (25 μg/ml) for 2 hr at 37° C. before treatment with mAb 216. Control samples with equivalent amounts of DMSO were set in parallel. Cells were then exposed to 25 μg of mAb 216 or control Ab and analyzed by flow cytometry.

Nalm 6 = experiment: In vitro cytotoxicity of mAb216 in combination with chemotherapeutic agents; type: cell-based, human; settings: for Live cells ×10^5 / % change in live cells: 48 h; for % change in live cells: versus control
Experimental: (§1) Three cell lines which have been derived from ALL blasts of different genotype and phenotype, Nalm 6, REH, and SUPB15, were incubated with mAb 216 alone or in combination with vincristine (VCR), for 48 hours at 37° C.
(§2) In vitro cytotoxicity of mAb216 in combination with single chemotherapeutic agents was tested. Three cell lines which have been derived from ALL blasts of different genotype and phenotype, Nalm 6, REH, and SUPB 15, were incubated with mAb 216 alone or in combination with vincristine (VCR), daunorubicin (DNR), or L-asparaginase (ASPR).

Reh = experiment: as above; type: cell-based, human; settings: 48 h; for % change in live cells: versus control
Experimental: as §1, §2

SUP B15 = experiment: as above; type: cell-based; settings: 48 h; for % change in live cells: versus control
Experimental: as §1, §2

Molecule: C[C@H]1CCC/C=C/[C@@H]2C[C@H](O)C[C@H]2[C@H](O)/C=C/C(=O)O1 [BFA, Brefeldin A]
- viability of cells treated with control antibodies (Nalm-6 cells; BFA 25 μg/ml for 2 hr): no effect

Molecule: COc1cccc2c1C(=O)c1c(O)c3c(c(O)c1C2=O)C[C@@](O)(C(C)=O)C[C@@H]3O[C@H]1C[C@H](N)[C@H](O)[C@H](C)O1 [DNR, daunorubicin]
- Live cells ×10^5 (Nalm 6; DNR 5 ng/ml): 4.3 ×10^5 and 4.5 ×10^5
- % change in live cells (Nalm 6; DNR 5 ng/ml): 47% and 59%
- Live cells ×10^5 (Reh; DNR 5 ng/ml): 4.5 ×10^5
- % change in live cells (Reh; DNR 5 ng/ml): 65%
- Live cells ×10^5 (SUP B15; DNR 4 ng/ml): 0.44 ×10^5
- % change in live cells (SUP B15; DNR 4 ng/ml): 91%

Molecule: CC[C@]1(O)C[C@H]2CN(CCc3c([nH]c4ccccc34)[C@@](C(=O)OC)(c3cc4c(cc3OC)N(C=O)[C@H]3[C@@](O)(C(=O)OC)[C@H](OC(C)=O)[C@]5(CC)C=CCN6CC[C@]43[C@@H]65)C2)C1 [VCR, vincristine]
- Live cells ×10^5 (Nalm 6; VCR 0.2 ng/ml): 13 ×10^5
- % change in live cells (Nalm 6; VCR 0.2 ng/ml): 0%
- Live cells ×10^5 (Nalm 6; VCR 2 ng/ml): 5 ×10^5
- % change in live cells (Nalm 6; VCR 2 ng/ml): 54%
- cell death due to vincristine alone (Nalm 6; vincristine 0.2 ng/ml, 48 hours at 37° C.): no cell death occurred
- Live cells ×10^5 (Reh; VCR 2 ng/ml): 4.2 ×10^5 and 7.7 ×10^5
- Live cells ×10^5 (SUP B15; VCR 2 ng/ml): 2.8 ×10^5
- % change in live cells (SUP B15; VCR 2 ng/ml): 45%

Molecule: C/C1=C\[C@H](C)C[C@H](C)OC(=O)C[C@H](c2ccc(O)cc2)NC(=O)[C@@H](Cc2c(Br)[nH]c3ccccc23)N(C)C(=O)[C@H](C)NC(=O)[C@@H](C)C1 [jasplakinolide]
- viability (Nalm-6 cells): did not show a decrease in viability

Molecule: Ac-DEVD-CHO
- effect of caspase inhibitor on cell viability (Nalm-6 cells): did not alter cell viability

Molecule: Ac-IETD-aldehyde
- effect of caspase inhibitor on cell viability (Nalm-6 cells): did not alter cell viability

Molecule: cytochalasin
- viability (Nalm-6 cells): did not show a decrease in viability

B1: L-asparaginase (protein, UniProt P00805 23-348, looked up)
L-asparaginase 2: LPNITILATGGTIAGGGDSATKSNYTVGKVGVENLVNAVPQLKDIANVKGEQVVNIGSQDMNDNVWLTLAKKINTDCDKTDGFVITHGTDTMEETAYFLDLTVKCDKPVVMVGAMRPSTSMSADGPFNLYNAVVTAADKASANRGVLVVMNDTVLDGRDVTKTNTTDVATFKSVNYGPLGYIHNGKIDYQRTPARKHTSDTPFDVSKLNELPKVGIVYNYANASDLPAKALVDAGYDGIVSAGVGNGNLYKSVFDTLATAAKTGTAVVRSSRVPTGATTQDAEVDDAKYGFVASGTLNPQKARVLLQLALTQTKDPQQIQQIFNQY
- Live cells ×10^5 (Nalm 6; ASPR 0.8 U/ml): 9.2 ×10^5
- % change in live cells (Nalm 6; ASPR 0.8 U/ml): 23%
- Live cells ×10^5 (Reh; ASPR 0.8 U/ml): 6.2 ×10^5
- % change in live cells (Reh; ASPR 0.8 U/ml): 35%
- Live cells ×10^5 (SUP B15; ASPR 0.8 U/ml): 3 ×10^5
- % change in live cells (SUP B15; ASPR 0.8 U/ml): 47%
